Data on two compounds can be found in patent US10201556B2, “Combination for use in treating diseases or conditions associated with melanoma, or treating diseases or conditions associated with activated B-raf pathway” (InteRNA Technologies B.V., priority 2012, dated 2019).

Entries after “also recorded” stand apart in the source; their conditions may differ.

Format in all cases: cell-based, human
One series relates to phospho-ERK1/2. The series can be described thus: Western immunoblotting of phospho-ERK1/2 protein levels. The following applies: Western blot. The method, then:
(§1) A375Hu cells were seeded in 6-well plates and transfected with different concentrations (10, 50 and 100 nM) of synthetic hsa-miR-129-5p or BRAF siRNA (100 nM) using RNAiMAX (7.5 μl/well). As control a scrambled miRNA and a non-targeting siRNA pool were included. Proteins were harvested 72 hrs post transfection using RIPA buffer supplemented with HALT™ Phosphatase Inhibitor (Thermo Scientific) and Protease Inhibitor Cocktail (Sigma). Fifteen μg protein was loaded on 7.5% TGX acrylamide gels (Bio-Rad) and subsequently transferred to PVDF membranes. The membranes were blocked in 5% milk in TBS-T and incubated O/N at 4° C. with primary antibodies to bRAF, phosphoERK1/2, CDK6, and tubulin (Santa Cruz). After incubation with secondary goat-anti-mouse antibodies (Santa Cruz), membranes were developed using ECL (Pierce).
as §1, with “(1, 10” for “(10, 50”, “hsa-miR-3157” for “hsa-miR-129-5p”, “bRAF, total ERK1/2,” for “bRAF,”, “CDK4, BCL2” for “CDK6,”
as §1, with “concentrations” for “concentrations (10, 50 and 100 nM)”, “vemurafenib (PLX-4032, 0.01, 0.1, 1 uM).” for “synthetic hsa-miR-129-5p or BRAF siRNA (100 nM) using RNAiMAX (7.5 μl/well). As control a scrambled miRNA and a non-targeting siRNA pool were included.”, “bRAF, total ERK1/2,” for “bRAF,”, “CDK4, BCL2” for “CDK6,”
(§2) A2058 cells were seeded in 6-well plates and transfected with different concentrations (1, 10 and 100 nM) of synthetic hsa-miR-3157-5p or BRAF siRNA using X-TremeGene (Roche, 15 μl/well). As control a scrambled miRNA was included. Proteins were harvested 72 hrs post transfection using RIPA buffer supplemented with HALT™ Phosphatase Inhibitor (Thermo Scientific) and Protease Inhibitor Cocktail (Sigma). Fifteen μg protein was loaded on 10% TGX acrylamide gels (Bio-Rad) and subsequently transferred to PVDF membranes. The membranes were blocked in 5% milk in TBS-T and incubated O/N at 4° C. with primary antibodies to bRAF, total ERK1/2, phosphoERK1/2, BCL2, CDK4 and tubulin (Santa Cruz). After incubation with secondary goat-anti-mouse antibodies (Santa Cruz), membranes were developed using ECL (Pierce).
Transfection was performed as described in Example 4 in 6-well format. Proteins were isolated using RIPA buffer (50 mM Tris pH 8.0, 150 mM NaCL, 1% NP-40, 0.5% Sodium deoxycholate, 0.1% SDS), supplemented with Protease Inhibitor Cocktail (Sigma) and Halt™ Phosphatase Inhibitor Cocktail (Pierce/Thermo Scientific). […]

In another series the test system is AURKB. The series can be described thus: Western blotting of AURKB protein levels. The method, then:
(§3) Transfection was performed as described in Example 4 in 6-well format. Proteins were isolated using RIPA buffer (50 mM Tris pH 8.0, 150 mM NaCL, 1% NP-40, 0.5% Sodium deoxycholate, 0.1% SDS), supplemented with Protease Inhibitor Cocktail (Sigma) and Halt™ Phosphatase Inhibitor Cocktail (Pierce/Thermo Scientific). Fifteen μg protein was loaded on a 12% Mini-PROTEAN® TGX™ Precast Gel (Bio-Rad), and proteins were transferred to Immun-Blot PVDF Membrane (Bio-Rad). Membranes were blocked in 5% milk or 5% BSA in TBS-T, and incubated O/N at 4° C. with primary antibodies against α-tubulin (1:5000), BRAF, pERK1/2, CDK4, RRM2 (all 1:1000), BCL-2 (1:500) (Santa Cruz), total-ERK1/2 (1:2000), BIRC5, AURKB (1:1000) (Cell Signaling), ERK1 (1:2000) (GeneTex). After incubation with appropriate secondary antibodies and western blot chemiluminescence substrate ECL (Pierce/Thermo Scientific), membranes were exposed to CL-XPosure Film (Pierce/Thermo Scientific).

The next series relates to RRM2. Kind of series: Western blotting of RRM2 protein levels. The method, then: as §3
The next series relates to CDK4. Kind of series: Western immunoblotting of CDK4 protein levels. The method, then:
as §1, with “(1, 10” for “(10, 50”, “hsa-miR-3157” for “hsa-miR-129-5p”, “bRAF, total ERK1/2,” for “bRAF,”, “CDK4, BCL2” for “CDK6,”
as §1, with “concentrations” for “concentrations (10, 50 and 100 nM)”, “vemurafenib (PLX-4032, 0.01, 0.1, 1 uM).” for “synthetic hsa-miR-129-5p or BRAF siRNA (100 nM) using RNAiMAX (7.5 μl/well). As control a scrambled miRNA and a non-targeting siRNA pool were included.”, “bRAF, total ERK1/2,” for “bRAF,”, “CDK4, BCL2” for “CDK6,”
as §2, §3

Setting [1] is: A375 cells, increasing concentrations of mimic (FIG. 12c).
The mark [2] stands for this setting: A2058, M249, M249-AR4 and M376, increasing concentrations of mimic (FIG. 14a).
Where [3] appears, read: vemurafenib-resistant A2058, M249-AR4 and M376, 1 μM, 24 hrs (FIG. 14b).
The mark [4] stands for this setting: vemurafenib-sensitive A375 and M249, 1 μM, 24 hrs (FIG. 14b).

For the compound “hsa-miR-3157-5p: mature miRNA mimic, SEQ ID NO 6 UUCAGCCAGGCUAGUGCAGUCU (listed as RNA, chemistry not given here)”, the phospho-ERK1/2 protein levels result in the series on phospho-ERK1/2 (A375Hu cells, 72 hrs) is “does not down-regulate; also recorded: not affected”; in the series on phospho-ERK1/2 (A2058 cells (vemurafenib resistant), 72 hrs post transfection), “not down-regulated”. The figures for the AURKB protein levels entry in the series on AURKB (setting [1]) and in the series with AURKB (setting [2]) were “most pronounced” and “strongly downregulated”, respectively. Also, the results for the RRM2 protein levels result with RRM2 (setting [1]) and in the series with RRM2 (setting [2]) were “most pronounced” and “strongly downregulated”, respectively. Also, the CDK4 protein levels entry in the series with CDK4 (A375Hu cells, 72 hrs, Western blot) is “significant reduction in CDK4 protein levels; also recorded: down-regulated”; with CDK4 (setting [1]), “strong reduction”; in the series with CDK4 (A2058, increasing concentrations of mimic (FIG. 14a)), “mild effect”; with CDK4 (A2058 cells (vemurafenib resistant), 72 hrs post transfection, Western blot), “reduction; also recorded: down-regulated”; in the series with CDK4 (M249-AR4, increasing concentrations of mimic (FIG. 14a)), “no effect”; in the series on CDK4 (M249 and M376, increasing concentrations of mimic (FIG. 14a)), “strong downregulation”.

`CCCS(=O)(=O)Nc1ccc(F)c(C(=O)c2c[nH]c3ncc(-c4ccc(Cl)cc4)cc23)c1F` [Vemurafenib, N-(3-{[5-(4-chlorophenyl)-1H-pyrrolo[2,3-b]pyridin-3-yl]carbonyl}-2,4-difluorophenyl)propane-1-sulfonamide]: the phospho-ERK1/2 protein levels entry in the series with phospho-ERK1/2 (A375Hu cells, 72 hrs) was “inhibits”; in the series with phospho-ERK1/2 (A375Hu cells, 72 hrs, listed as PLX-4032), “down regulation”. Moreover, the AURKB protein levels result in the series on AURKB (setting [3]) was “protein levels similar to control-treated cells”; in the series on AURKB (setting [4]), “downregulated”. Moreover, the RRM2 protein levels entry is reported as “protein levels similar to control-treated cells” in the series with RRM2 (setting [3]) and “downregulated” with RRM2 (setting [4]). For the same compound, the CDK4 protein levels entry in the series on CDK4 (A375Hu cells, 72 hrs, Western blot, listed as PLX-4032) is “not in reduction of CDK4 and BCL2 protein levels”.
